Data published in paper PMC5578959, “Selective LRRK2 kinase inhibition reduces phosphorylation of endogenous Rab10 and Rab12 in human peripheral mononuclear blood cells” (Scientific Reports, 2017).

Experiments:
Assay in all cases: KiNativ profiling in human PBMCs
Type in all cases: binding
MARK1,MARK2 = conditions: Lys1
Method in brief: (§1)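 PBMCs treated in live-cell format, compound 1 µM / 0.1 µM; kinase profiling by KiNativ methodology.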

SNRK = test system: T1, SNRK
T1 construct: purchased ActivX Technologies (KiNativ)
Method in brief: as §1

RIPK3 = test system: T2, RIPK3; conditions: Lys2
T2 construct: purchased ActivX Technologies (KiNativ)
Method in brief: as §1

ULK1 = test system: T3, ULK1; conditions: Lys2
T3 construct: purchased ActivX Technologies (KiNativ)
Method in brief: as §1

MST1 = test system: T4, MST1; conditions: Lys1
T4 construct: purchased ActivX Technologies (KiNativ)
Method in brief: as §1

IRAK1 = test system: T5, IRAK1; conditions: Lys2
T5 construct: purchased ActivX Technologies (KiNativ)
Method in brief: as §1

KSR1 = test system: T6, KSR1; conditions: Activation Loop
T6 construct: purchased ActivX Technologies (KiNativ)
Method in brief: as §1

IRAK4 = test system: T7, IRAK4
T7 construct: purchased ActivX Technologies (KiNativ)
Method in brief: as §1

Wnk1,Wnk2,Wnk4 = conditions: Activation Loop
Method in brief: as §1

JAK3 domain2 = test system: T8, JAK3 domain2
T8 construct: JAK3 domain2; purchased ActivX Technologies (KiNativ)
Method in brief: as §1

CK1g2 = test system: T9, CK1g2; conditions: Lys2
T9 construct: purchased ActivX Technologies (KiNativ)
Method in brief: as §1

IKKe,TBK1 = conditions: Lys2
Method in brief: as §1

CDK7 = test system: T10, CDK7; conditions: Lys2
T10 construct: purchased ActivX Technologies (KiNativ)
Method in brief: as §1

ACK = test system: T11, ACK; conditions: Lys1
T11 construct: purchased ActivX Technologies (KiNativ)
Method in brief: as §1

MAST3 = test system: T12, MAST3; conditions: Lys2
T12 construct: purchased ActivX Technologies (KiNativ)
Method in brief: as §1

PIK3C3 = test system: T13, PIK3C3; conditions: ATP
T13 construct: purchased ActivX Technologies (KiNativ)
Method in brief: as §1

BTK = test system: T14, BTK
T14 construct: purchased ActivX Technologies (KiNativ)
Method in brief: as §1

PITSLRE = test system: T15, PITSLRE; conditions: Lys2
T15 construct: purchased ActivX Technologies (KiNativ)
Method in brief: as §1

p70S6K,p70S6Kb = conditions: ATP Loop
Method in brief: as §1

STLK3 = test system: T16, STLK3; conditions: Lys2
T16 construct: purchased ActivX Technologies (KiNativ)
Method in brief: as §1

TAO1,TAO3 = conditions: Lys2
Method in brief: as §1

CDK11,CDK8 = conditions: Lys2
Method in brief: as §1

PAN3 = test system: T17, PAN3; conditions: ATP
T17 construct: purchased ActivX Technologies (KiNativ)
Method in brief: as §1

p70S6K = test system: T18, p70S6K; conditions: Lys2
T18 construct: purchased ActivX Technologies (KiNativ)
Method in brief: as §1

LATS1 = test system: T19, LATS1
T19 construct: purchased ActivX Technologies (KiNativ)
Method in brief: as §1

MSK2 domain1 = test system: T20, MSK2 domain1; conditions: Lys2
T20 construct: MSK2 domain1; purchased ActivX Technologies (KiNativ)
Method in brief: as §1

PFTAIRE1 = test system: T21, PFTAIRE1
T21 construct: purchased ActivX Technologies (KiNativ)
Method in brief: as §1

LCK = test system: T22, LCK; conditions: Activation Loop
T22 construct: purchased ActivX Technologies (KiNativ)
Method in brief: as §1

ULK3 = test system: T23, ULK3
T23 construct: purchased ActivX Technologies (KiNativ)
Method in brief: as §1

CDK2 = test system: T24, CDK2
T24 construct: purchased ActivX Technologies (KiNativ)
Method in brief: as §1

RSK3 domain1 = test system: T25, RSK3 domain1; conditions: Lys2
T25 construct: RSK3 domain1; purchased ActivX Technologies (KiNativ)
Method in brief: as §1

[1] = test system: CaMK2a,CaMK2b,CaMK2d,CaMK2g; conditions: Lys2
Method in brief: as §1

PRPK = test system: T26, PRPK; conditions: ATP Loop
T26 construct: purchased ActivX Technologies (KiNativ)
Method in brief: as §1

CaMK4 = test system: T27, CaMK4
T27 construct: purchased ActivX Technologies (KiNativ)
Method in brief: as §1

TAK1 = test system: T28, TAK1; conditions: Lys2
T28 construct: purchased ActivX Technologies (KiNativ)
Method in brief: as §1

PKD2 = test system: T29, PKD2; conditions: Lys1
T29 construct: purchased ActivX Technologies (KiNativ)
Method in brief: as §1

MARK3 = test system: T30, MARK3; conditions: Lys1
T30 construct: purchased ActivX Technologies (KiNativ)
Method in brief: as §1

Cn1cc(-c2c[nH]c3ncnc(N4CCOCC4)c23)cc1C#N [PFE-360]
% Inhibition (MARK1,MARK2; 0.1µM): 6.2%
% Inhibition (MARK1,MARK2; 1µM): 3.2%
% Inhibition (SNRK; 0.1µM, Lys1): 17.1%
% Inhibition (SNRK; 0.1µM, Lys2): -21.9%
% Inhibition (SNRK; 1µM, Lys1): -2%
% Inhibition (SNRK; 1µM, Lys2): -18.7%
% Inhibition (RIPK3; 0.1µM): 16.1%
% Inhibition (RIPK3; 1µM): 27.3%
% Inhibition (ULK1; 0.1µM): 9.8%
% Inhibition (ULK1; 1µM): 4.2%
% Inhibition (MST1; 0.1µM): 16.8%
% Inhibition (MST1; 1µM): 34.1%
% Inhibition (IRAK1; 0.1µM): -6.1%
% Inhibition (IRAK1; 1µM): -11.8%
% Inhibition (KSR1; 0.1µM): 6.8%
% Inhibition (KSR1; 1µM): 8.2%
% Inhibition (IRAK4; 0.1µM, Lys1): 4.1%
% Inhibition (IRAK4; 0.1µM, Lys2): 8%
% Inhibition (IRAK4; 1µM, Lys1): -0.3%
% Inhibition (IRAK4; 1µM, Lys2): 1.4%
% Inhibition (Wnk1,Wnk2,Wnk4; 0.1µM): 4.7%
% Inhibition (Wnk1,Wnk2,Wnk4; 1µM): 2.2%
% Inhibition (JAK3 domain2; 0.1µM, Activation Loop): 6.4%
% Inhibition (JAK3 domain2; 0.1µM, Lys1): 2.6%
% Inhibition (JAK3 domain2; 1µM, Activation Loop): 7.7%
% Inhibition (JAK3 domain2; 1µM, Lys1): -7.6%
% Inhibition (CK1g2; 0.1µM): -2%
% Inhibition (CK1g2; 1µM): -13.3%
% Inhibition (IKKe,TBK1; 0.1µM): -25.5%
% Inhibition (IKKe,TBK1; 1µM): 16%
% Inhibition (CDK7; 0.1µM): 5%
% Inhibition (CDK7; 1µM): -4.6%
% Inhibition (ACK; 0.1µM): -5.6%
% Inhibition (ACK; 1µM): -0.5%
% Inhibition (MAST3; 0.1µM): 0.2%
% Inhibition (MAST3; 1µM): -2.7%
% Inhibition (PIK3C3; 0.1µM, peptide TEDGGKYPVIFKHGDDLR): -2.7%
% Inhibition (PIK3C3; 0.1µM, peptide TEDGGKYPVIFKHGDDLRQDQLILQIISLMDK): -22.4%
% Inhibition (PIK3C3; 1µM, peptide TEDGGKYPVIFKHGDDLR): -7.9%
% Inhibition (PIK3C3; 1µM, peptide TEDGGKYPVIFKHGDDLRQDQLILQIISLMDK): -43.1%
% Inhibition (BTK; 0.1µM, Activation Loop): -5.6%
% Inhibition (BTK; 0.1µM, Lys1): -12.3%
% Inhibition (BTK; 1µM, Activation Loop): -15.5%
% Inhibition (BTK; 1µM, Lys1): 2.1%
% Inhibition (PITSLRE; 0.1µM): -3.8%
% Inhibition (PITSLRE; 1µM): -18.7%
% Inhibition (p70S6K,p70S6Kb; 0.1µM): -0.2%
% Inhibition (p70S6K,p70S6Kb; 1µM): 13.2%
% Inhibition (STLK3; 0.1µM): -1.9%
% Inhibition (STLK3; 1µM): -6.2%
% Inhibition (TAO1,TAO3; 0.1µM): -0.2%
% Inhibition (TAO1,TAO3; 1µM): -14.3%
% Inhibition (CDK11,CDK8; 0.1µM): -9.1%
% Inhibition (CDK11,CDK8; 1µM): 9.6%
% Inhibition (PAN3; 0.1µM): -22.1%
% Inhibition (PAN3; 1µM): 10.4%
% Inhibition (p70S6K; 0.1µM): -16.9%
% Inhibition (p70S6K; 1µM): 8.5%
% Inhibition (LATS1; 0.1µM, Lys1): 5.2%
% Inhibition (LATS1; 0.1µM, Lys2): 3.2%
% Inhibition (LATS1; 1µM, Lys1): 0.9%
% Inhibition (LATS1; 1µM, Lys2): 0.1%
% Inhibition (MSK2 domain1; 0.1µM): 2.2%
% Inhibition (MSK2 domain1; 1µM): 1.9%
% Inhibition (PFTAIRE1; 0.1µM, Lys1): 1.9%
% Inhibition (PFTAIRE1; 0.1µM, Lys2): -4%
% Inhibition (PFTAIRE1; 1µM, Lys1): -2%
% Inhibition (PFTAIRE1; 1µM, Lys2): -1.5%
% Inhibition (LCK; 0.1µM): -11.6%
% Inhibition (LCK; 1µM): -0.3%
% Inhibition (ULK3; 0.1µM, Lys1): 1%
% Inhibition (ULK3; 0.1µM, Lys2): -2.5%
% Inhibition (ULK3; 1µM, Lys1): -3%
% Inhibition (ULK3; 1µM, Lys2): 0.6%
% Inhibition (CDK2; 0.1µM, Lys1): -5.8%
% Inhibition (CDK2; 0.1µM, Lys2): 4.2%
% Inhibition (CDK2; 1µM, Lys1): -5.5%
% Inhibition (CDK2; 1µM, Lys2): -2.9%
% Inhibition (RSK3 domain1; 0.1µM): 5.5%
% Inhibition (RSK3 domain1; 1µM): 8.1%
% Inhibition ([1]; 0.1µM): 6.1%
% Inhibition ([1]; 1µM): 1.2%
% Inhibition (PRPK; 0.1µM): 2.6%
% Inhibition (PRPK; 1µM): 8.1%
% Inhibition (CaMK4; 0.1µM, Lys1): -10.2%
% Inhibition (CaMK4; 0.1µM, Lys2): 15%
% Inhibition (CaMK4; 1µM, Lys1): -8.5%
% Inhibition (CaMK4; 1µM, Lys2): 9.5%
% Inhibition (TAK1; 0.1µM): -3.5%
% Inhibition (TAK1; 1µM): -20%
% Inhibition (PKD2; 0.1µM): 3.7%
% Inhibition (PKD2; 1µM): -5.1%
% Inhibition (MARK3; 0.1µM): 4.8%
% Inhibition (MARK3; 1µM): 4.7%
